Test results from ChEMBL document CHEMBL1201862, “PubChem BioAssay data set” (2004).
The source made the active and inactive calls.

Assays:
[1] = target: Nuclear receptor subfamily 5 group A member 2 (Homo sapiens, UniProt O00482); type: functional, cell-based;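 further: HEK293T cells transfected with LRH-1 and a StAR promoter luciferase reporter; potency for inhibitors that lower LRH-1 driven reporter light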
Steroidogenic factor 1 = Steroidogenic factor 1 (Homo sapiens, UniProt Q13285); assay: Counterscreen for inverse agonists of the liver receptor homolog-1 (LRH-1; NR5A2): Luminescence-based cell-based high throughput dose response assay to identify inverse agonists of the Steroidogenic Factor 1 Nuclear Receptor (SF1; NR5A1).; type: functional
Chain of Steroidogenic factor 1 (Q13285 whole entry): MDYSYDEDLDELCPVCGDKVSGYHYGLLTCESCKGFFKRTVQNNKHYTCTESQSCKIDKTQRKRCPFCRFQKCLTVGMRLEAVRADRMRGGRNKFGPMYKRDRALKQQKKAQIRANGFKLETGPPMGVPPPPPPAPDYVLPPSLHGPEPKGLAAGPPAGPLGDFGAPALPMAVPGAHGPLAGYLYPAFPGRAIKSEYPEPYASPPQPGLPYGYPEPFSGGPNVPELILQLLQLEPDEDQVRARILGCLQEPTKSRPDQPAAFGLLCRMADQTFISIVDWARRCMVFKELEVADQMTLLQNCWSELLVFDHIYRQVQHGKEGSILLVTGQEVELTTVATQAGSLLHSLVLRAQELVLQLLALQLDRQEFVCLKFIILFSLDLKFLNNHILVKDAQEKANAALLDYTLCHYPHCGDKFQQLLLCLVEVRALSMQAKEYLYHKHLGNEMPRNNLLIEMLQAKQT

[2] = StAR promoter reporter inhibition counter-screen, dose response, counter-screen for LRH-1 inverse agonist project, cell-based, luminescence, luciferase reporter (AID 651969); type: functional
Protein RecA = target: T1, Protein RecA (Mycobacterium tuberculosis, UniProt P9WHJ3); assay: Fluorescence Cell-Free Homogeneous Dose Retest to Identify Inhibitors of RecA-Intein Splicing Activity. [Related pubchem assays (depositor defined):AID2097, AID2223, AID489010, AID492950]; type: functional
T1 sequence (P9WHJ3 whole entry): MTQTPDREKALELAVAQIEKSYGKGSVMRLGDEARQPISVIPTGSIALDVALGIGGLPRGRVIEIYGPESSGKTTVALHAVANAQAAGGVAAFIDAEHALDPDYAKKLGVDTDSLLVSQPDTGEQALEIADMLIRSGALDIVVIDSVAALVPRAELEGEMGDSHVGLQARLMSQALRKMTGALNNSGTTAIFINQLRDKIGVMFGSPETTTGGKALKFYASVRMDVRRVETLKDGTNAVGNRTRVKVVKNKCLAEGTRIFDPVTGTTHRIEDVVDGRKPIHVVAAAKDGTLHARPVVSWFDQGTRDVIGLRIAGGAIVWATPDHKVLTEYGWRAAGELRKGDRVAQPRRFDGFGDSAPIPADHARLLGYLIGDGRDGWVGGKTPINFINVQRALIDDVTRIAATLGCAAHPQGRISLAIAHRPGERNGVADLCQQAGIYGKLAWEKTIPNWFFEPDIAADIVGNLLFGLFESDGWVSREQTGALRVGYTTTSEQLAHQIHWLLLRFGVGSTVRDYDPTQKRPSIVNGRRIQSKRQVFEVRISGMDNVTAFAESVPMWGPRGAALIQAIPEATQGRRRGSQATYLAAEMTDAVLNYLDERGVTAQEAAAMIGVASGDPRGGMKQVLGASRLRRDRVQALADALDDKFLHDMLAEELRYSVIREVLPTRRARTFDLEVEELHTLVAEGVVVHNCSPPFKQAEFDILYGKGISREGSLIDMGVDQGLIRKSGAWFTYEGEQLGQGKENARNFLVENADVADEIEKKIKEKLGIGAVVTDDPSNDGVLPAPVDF

[3] = target: T2, Replicative DNA helicase DnaB (Mycobacterium tuberculosis, UniProt P9WMR3); assay: DnaB intein splicing inhibitors, dose response, biochemical, cell-free fluorescence (AID 449749); type: functional
T2 sequence (P9WMR3 whole entry): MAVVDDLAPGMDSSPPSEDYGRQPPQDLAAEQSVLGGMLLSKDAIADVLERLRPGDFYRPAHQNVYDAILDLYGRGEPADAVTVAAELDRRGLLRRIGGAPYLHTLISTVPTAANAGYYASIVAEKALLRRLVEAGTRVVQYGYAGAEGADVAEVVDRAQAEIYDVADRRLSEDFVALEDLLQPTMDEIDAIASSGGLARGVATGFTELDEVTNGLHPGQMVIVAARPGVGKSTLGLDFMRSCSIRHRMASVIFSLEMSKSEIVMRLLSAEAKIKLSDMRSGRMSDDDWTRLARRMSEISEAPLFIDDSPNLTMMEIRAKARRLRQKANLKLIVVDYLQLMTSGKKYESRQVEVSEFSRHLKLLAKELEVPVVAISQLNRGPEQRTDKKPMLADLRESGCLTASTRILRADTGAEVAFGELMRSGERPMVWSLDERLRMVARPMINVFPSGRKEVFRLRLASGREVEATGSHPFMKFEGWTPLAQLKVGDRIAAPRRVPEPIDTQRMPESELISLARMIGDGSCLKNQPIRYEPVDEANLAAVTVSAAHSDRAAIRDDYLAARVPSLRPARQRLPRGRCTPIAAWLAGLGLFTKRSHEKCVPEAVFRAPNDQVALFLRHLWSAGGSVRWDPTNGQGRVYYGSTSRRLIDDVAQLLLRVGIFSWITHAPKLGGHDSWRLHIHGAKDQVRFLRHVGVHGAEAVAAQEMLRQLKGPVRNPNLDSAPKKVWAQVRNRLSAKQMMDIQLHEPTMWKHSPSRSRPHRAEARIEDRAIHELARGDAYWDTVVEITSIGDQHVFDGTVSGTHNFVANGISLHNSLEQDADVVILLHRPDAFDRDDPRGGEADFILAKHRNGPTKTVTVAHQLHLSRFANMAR

[4] = NIH-3T3 fibroblast cytotoxicity, dose response, cytotoxicity control, cell-based, fluorescence, Alamar Blue, secondary assay (AID 2327); type: functional;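 further: NIH-3T3 mouse fibroblasts cultured with fluconazole at 8 µg/mL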
BJ [5] = assay: cytotoxicity toward BJ-TERT-LT-ST fibroblasts, dose response, cell-based, RAS-independent, luminescence (AID 1935); type: functional; details: Homo sapiens;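 further: BJ fibroblasts immortalized with TERT plus LT and ST oncogenes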
BJ [6] = assay: cytotoxicity toward BJ-TERT fibroblasts, dose response, cell-based, RAS-independent, luminescence (AID 1933); type: functional; details: Homo sapiens
BJ [7] = assay: cells; type: functional, cell-based; details: Homo sapiens
[8] = tested on: Streptococcus sp. 'group A'; assay: growth inhibition of control SK(-) GAS strain, dose response, counter-screen for streptokinase expression inhibitor project, luminescence, kanamycin, BacTiterGlo, confirmation (AID 1900); type: functional, organism-based
[9] = target: T3, Heat shock factor protein 1 (Mus musculus, UniProt P38532); assay: HSF1 potentiators in luciferase reporter cells, confirmation, cell-based, NIH3T3, luminescence, dose retest (AID 435004); type: functional;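 further: stress induced by proteasome inhibitor MG132 added 30 min after compound; luciferase reporter driven by HSF1 response element in NIH3T3 cells; actives raise luminescence as potentiators of the MG132 stress response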
T3 sequence (P38532 whole entry): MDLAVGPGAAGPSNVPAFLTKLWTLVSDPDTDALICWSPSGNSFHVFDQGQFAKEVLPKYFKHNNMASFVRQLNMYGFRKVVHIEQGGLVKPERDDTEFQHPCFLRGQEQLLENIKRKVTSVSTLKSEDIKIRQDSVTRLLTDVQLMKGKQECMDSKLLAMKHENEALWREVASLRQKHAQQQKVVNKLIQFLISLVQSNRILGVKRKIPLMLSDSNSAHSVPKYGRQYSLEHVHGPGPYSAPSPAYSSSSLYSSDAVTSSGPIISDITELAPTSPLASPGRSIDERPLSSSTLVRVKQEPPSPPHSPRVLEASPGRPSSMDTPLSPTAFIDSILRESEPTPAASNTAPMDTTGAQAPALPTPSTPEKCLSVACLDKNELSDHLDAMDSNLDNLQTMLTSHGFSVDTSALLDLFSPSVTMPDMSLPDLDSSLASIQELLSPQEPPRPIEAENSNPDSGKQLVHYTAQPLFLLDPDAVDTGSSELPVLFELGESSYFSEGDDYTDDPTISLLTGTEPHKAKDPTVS

[10] = cytotoxicity toward DRD oncogenic fibroblasts, dose response, cell-based, non-viral oncogenic, luminescence (AID 1934); type: functional; details: Homo sapiens
cells [11] = type: functional, cell-based
INS1 = assay: beta cell apoptosis inhibitors, cytokine rescue, dose response, luminescence, retest (AID 449756); type: functional, cell-based; details: Rattus norvegicus;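 further: cell death triggered by IL-1 beta plus TNF-alpha plus IFN-gamma mixture; protective hits raise ATP signal compared with cytokine alone wells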
Nonstructural protein 1 = Nonstructural protein 1 (Influenza A virus, UniProt Q194T2); type: functional, Influenza A virus (A/California/07/2009(H1N1))
Chain of Nonstructural protein 1 (Q194T2 whole entry): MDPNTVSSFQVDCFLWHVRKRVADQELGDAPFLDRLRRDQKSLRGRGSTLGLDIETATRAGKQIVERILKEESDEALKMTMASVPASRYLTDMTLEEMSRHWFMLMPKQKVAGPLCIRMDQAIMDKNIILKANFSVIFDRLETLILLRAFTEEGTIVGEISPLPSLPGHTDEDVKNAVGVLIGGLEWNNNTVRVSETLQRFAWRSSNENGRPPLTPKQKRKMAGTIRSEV

[12] = target: Dual specificity tyrosine-phosphorylation-regulated kinase 1A (Rattus norvegicus, UniProt Q63470); type: biochemical, Homo sapiens
Paired box protein Pax-8 = Paired box protein Pax-8 (Homo sapiens, UniProt Q06710); assay: inhibitors of PAX8-driven TPO luciferase reporter, dose response, RMG-I cells, cherry-pick (AID 687027); type: functional, cell-based;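 further: luciferase reporter driven by Pax8 target thyroperoxidase promoter measured by SteadyGlo luminescence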
Chain of Paired box protein Pax-8 (Q06710 whole entry): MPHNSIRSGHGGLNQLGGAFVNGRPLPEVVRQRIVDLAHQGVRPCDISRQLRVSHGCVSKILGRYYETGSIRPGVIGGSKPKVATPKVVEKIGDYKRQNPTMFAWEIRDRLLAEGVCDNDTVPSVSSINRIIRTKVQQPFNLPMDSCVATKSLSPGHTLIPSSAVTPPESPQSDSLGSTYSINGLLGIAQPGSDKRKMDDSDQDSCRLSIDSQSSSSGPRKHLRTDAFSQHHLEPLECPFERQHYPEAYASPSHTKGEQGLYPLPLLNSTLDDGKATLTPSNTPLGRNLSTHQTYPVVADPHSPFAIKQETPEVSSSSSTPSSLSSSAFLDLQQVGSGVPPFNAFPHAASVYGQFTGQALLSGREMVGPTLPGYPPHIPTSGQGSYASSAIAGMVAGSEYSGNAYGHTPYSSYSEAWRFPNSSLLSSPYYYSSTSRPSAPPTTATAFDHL

[13] = C. albicans growth with fluconazole, confirmation, fluorescence, retest (AID 2467); type: functional, cell-based
[14] = target: Photoreceptor-specific nuclear receptor (Homo sapiens, UniProt Q9Y5X4); type: functional, cell-based;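 further: CHO-S cells with Gal4-NCOR and VP16-NR2E3 two-hybrid luciferase reporter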
Chain of Photoreceptor-specific nuclear receptor (Q9Y5X4 whole entry, the tested form may be a part): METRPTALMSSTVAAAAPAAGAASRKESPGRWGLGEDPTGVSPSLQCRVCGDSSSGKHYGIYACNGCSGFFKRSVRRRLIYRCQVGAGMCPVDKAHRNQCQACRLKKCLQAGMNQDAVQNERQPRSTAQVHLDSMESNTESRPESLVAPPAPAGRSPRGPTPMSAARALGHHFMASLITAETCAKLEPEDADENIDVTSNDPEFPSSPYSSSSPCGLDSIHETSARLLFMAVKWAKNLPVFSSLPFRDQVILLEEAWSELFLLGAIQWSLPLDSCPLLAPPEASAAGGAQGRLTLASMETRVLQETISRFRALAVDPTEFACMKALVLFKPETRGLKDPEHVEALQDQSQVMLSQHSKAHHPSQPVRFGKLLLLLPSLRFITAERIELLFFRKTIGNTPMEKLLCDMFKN

cells [15] = type: functional, cell-based; remark: listed apart in the source
Streptococcus = assay: Group A Streptococcus viability loss, dose response, counter-screen for streptokinase expression inhibitor project, luminescence, BacTiterGlo (AID 1915); type: functional, organism-based;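 further: potency for reduction of bacterial viability or growth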
Beta-galactosidase = Beta-galactosidase (Escherichia coli, UniProt Q8VNN2); assay: beta-galactosidase enzyme inhibitors and activators, dose response, artefact control for CCR6 antagonist project, biochemical, E. coli enzyme, set 3 (AID 504712); type: functional
Chain of Beta-galactosidase (Q8VNN2 whole entry): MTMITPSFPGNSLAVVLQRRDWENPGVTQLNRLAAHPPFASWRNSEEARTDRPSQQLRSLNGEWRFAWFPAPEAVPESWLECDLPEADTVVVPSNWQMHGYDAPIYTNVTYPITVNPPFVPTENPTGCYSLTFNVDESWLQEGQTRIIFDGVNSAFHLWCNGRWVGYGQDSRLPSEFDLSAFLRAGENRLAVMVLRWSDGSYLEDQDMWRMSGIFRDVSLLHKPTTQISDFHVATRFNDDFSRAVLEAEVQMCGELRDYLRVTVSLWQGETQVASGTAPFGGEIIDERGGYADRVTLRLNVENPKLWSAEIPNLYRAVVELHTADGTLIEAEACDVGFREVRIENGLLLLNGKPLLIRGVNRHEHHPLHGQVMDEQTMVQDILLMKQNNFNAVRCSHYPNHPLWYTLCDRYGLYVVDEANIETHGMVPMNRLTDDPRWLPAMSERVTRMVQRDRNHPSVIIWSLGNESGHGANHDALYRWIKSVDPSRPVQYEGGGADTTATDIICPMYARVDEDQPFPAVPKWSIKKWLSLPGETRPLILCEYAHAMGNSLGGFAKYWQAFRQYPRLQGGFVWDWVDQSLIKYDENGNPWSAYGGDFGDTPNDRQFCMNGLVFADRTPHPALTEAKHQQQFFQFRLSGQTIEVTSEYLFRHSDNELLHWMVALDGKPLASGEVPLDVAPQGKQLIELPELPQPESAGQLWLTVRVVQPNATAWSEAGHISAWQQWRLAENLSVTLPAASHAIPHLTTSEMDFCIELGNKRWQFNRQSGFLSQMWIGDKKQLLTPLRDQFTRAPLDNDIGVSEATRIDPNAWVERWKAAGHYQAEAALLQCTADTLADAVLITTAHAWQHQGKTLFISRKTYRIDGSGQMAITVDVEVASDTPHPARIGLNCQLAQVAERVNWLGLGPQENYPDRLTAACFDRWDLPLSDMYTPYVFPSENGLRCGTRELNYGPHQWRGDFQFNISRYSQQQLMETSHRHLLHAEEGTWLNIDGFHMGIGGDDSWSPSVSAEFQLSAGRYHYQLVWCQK

[16] = target: T4, Small ubiquitin-related modifier 1 (Homo sapiens, UniProt P63165); assay: inhibitors of SUMO1 partner interactions, dose response, biochemical, FRET (AID 624383); type: functional; details: read-out: IC50_Mean
T4 sequence (P63165 whole entry): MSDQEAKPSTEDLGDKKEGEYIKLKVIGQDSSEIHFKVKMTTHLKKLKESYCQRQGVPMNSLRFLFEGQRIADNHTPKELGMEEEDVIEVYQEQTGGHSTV

[17] = target: T4, Small ubiquitin-related modifier 1; assay: inhibitors of SUMO1 peptide binding, dose response, biochemical, fluorescence polarization, uHTS hits (AID 624382); type: functional; details: read-out: IC50_Mean
[18] = Shn3 3'UTR reporter inhibitors, dose response, cell-based, Clone20 osteoblasts, firefly luciferase, cherry-picked (AID 624132); type: functional;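 further: firefly luciferase luminescence from reporter carrying the Shn3 3'UTR in osteoblasts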
[19] = target: T5, COUP transcription factor 2 (Homo sapiens, UniProt P24468); assay: Luminescence-based cell-based high throughput dose response assay to identify inhibitors of COUP-TFII (NR2F2).; type: functional;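 further: HEK293 cells transiently cotransfected with COUP-TFII expression vector and reporter; luciferase reporter luminescence driven by COUP-TFII from the pX2-168 reporter plasmid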
T5 sequence (P24468 whole entry): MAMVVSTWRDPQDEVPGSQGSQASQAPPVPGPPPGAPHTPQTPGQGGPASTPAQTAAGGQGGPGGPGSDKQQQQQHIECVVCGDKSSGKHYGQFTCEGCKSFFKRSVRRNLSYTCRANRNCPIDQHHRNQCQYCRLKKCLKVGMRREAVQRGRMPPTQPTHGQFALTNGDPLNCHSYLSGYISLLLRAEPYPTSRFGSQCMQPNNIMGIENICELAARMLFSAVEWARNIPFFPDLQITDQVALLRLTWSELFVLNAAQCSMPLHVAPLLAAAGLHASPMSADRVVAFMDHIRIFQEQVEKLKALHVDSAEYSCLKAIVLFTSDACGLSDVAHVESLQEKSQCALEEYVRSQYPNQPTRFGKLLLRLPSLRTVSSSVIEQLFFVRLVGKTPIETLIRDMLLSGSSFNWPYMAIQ

[20] = control 3'UTR Renilla luciferase suppression, dose response, counter-screen for Shn3 inhibitor project, cell-based, Clone20-Shn3RL, cherry-picked (AID 624133); type: functional
Galanin receptor type 3 = target: T6, Galanin receptor type 3 (Homo sapiens, UniProt O60755); assay: Fluorescence-based cell-based primary high throughput dose response assay to identify antagonists of the Galanin Receptor 3 (GalR3).; type: functional
T6 sequence (O60755 whole entry): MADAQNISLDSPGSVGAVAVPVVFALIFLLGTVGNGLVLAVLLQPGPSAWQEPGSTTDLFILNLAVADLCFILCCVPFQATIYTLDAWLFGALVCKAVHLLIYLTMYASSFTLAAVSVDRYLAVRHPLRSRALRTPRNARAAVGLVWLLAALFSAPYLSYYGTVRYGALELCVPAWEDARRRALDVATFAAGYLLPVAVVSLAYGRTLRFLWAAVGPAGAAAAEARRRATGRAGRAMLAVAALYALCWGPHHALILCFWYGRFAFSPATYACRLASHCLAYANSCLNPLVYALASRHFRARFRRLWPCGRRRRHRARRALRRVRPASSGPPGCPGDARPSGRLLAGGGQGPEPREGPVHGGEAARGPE

cells [21] = type: functional, cell-based; details: HEK-CNG
[22] = HepG2 cell cytotoxicity, dose response, cytotoxicity control for Shn3 inhibitor project, CellTiter-Glo, cherry-picked (AID 624134); type: functional, cell-based

Chain of Nuclear receptor subfamily 5 group A member 2 (O00482 whole entry): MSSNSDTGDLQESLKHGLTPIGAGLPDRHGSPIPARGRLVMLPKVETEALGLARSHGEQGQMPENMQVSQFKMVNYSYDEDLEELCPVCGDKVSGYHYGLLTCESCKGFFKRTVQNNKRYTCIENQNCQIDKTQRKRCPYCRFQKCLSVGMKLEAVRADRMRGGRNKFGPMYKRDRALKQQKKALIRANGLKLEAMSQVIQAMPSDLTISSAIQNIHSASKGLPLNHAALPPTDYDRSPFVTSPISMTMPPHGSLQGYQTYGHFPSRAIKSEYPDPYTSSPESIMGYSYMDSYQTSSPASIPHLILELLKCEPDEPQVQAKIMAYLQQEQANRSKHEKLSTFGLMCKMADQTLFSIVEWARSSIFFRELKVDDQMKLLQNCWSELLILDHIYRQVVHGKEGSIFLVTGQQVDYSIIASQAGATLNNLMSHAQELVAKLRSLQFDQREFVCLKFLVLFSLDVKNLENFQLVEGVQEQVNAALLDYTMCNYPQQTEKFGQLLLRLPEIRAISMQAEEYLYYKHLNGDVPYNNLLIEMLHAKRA

SMILES: CCOc1ccc(NC(=O)COC(=O)CC2CCCCC2)cc1
- IC50 [1]: 35.9 µM (inactive)
- IC50 (Steroidogenic factor 1): 35.9 µM (inactive)
- IC50 [2]: 35.9 µM (inactive)

SMILES: Cc1cc(Br)ccc1NC(=O)CN1C(=O)CCC1=O
- IC50 [1]: 12 µM (inactive)
- IC50 (Steroidogenic factor 1): 0.877 µM (active)
- IC50 [2]: 35.9 µM (inactive)

SMILES: Oc1[nH]c2ccc(Br)cc2c1N=NC(=S)N1CCOCC1
- EC50 (Protein RecA): 22.7 µM (active)
- AC50 [3]: > 380 µM (inactive)
- EC50 [4]: > 150 µM (inconclusive)
- EC50 (BJ [5]): 5.1 µM (inconclusive)
- EC50 (BJ [6]): 1.81 µM (inconclusive)
- EC50 (BJ [7]): 12.8 µM (inconclusive)
- EC50 [8]: < 0.06 µM (active)
- EC50 [9]: > 260 µM (inactive)
- EC50 [10]: 7.46 µM (inconclusive)
- EC50 (cells [11]): 137 µM (active)
- AC50 (INS1): 1.6 µM (active)
- IC50 (Nonstructural protein 1): 19.9 µM (active)
- AC50 [12]: 7.39 µM (active)
- AC50 (Paired box protein Pax-8): 1.55 µM (active)
- EC50 [13]: 3.18 µM (active)
- IC50 [14]: 1.81 µM (active)
- EC50 (cells [15]): > 350 µM (not active)
- EC50 (Streptococcus): 0.167 µM (active)

SMILES: COC(=O)c1ccc(CNC(=O)COC(=O)c2cc(Cl)nc(Cl)c2)cc1
- IC50 [1]: 12 µM (inactive)
- IC50 (Steroidogenic factor 1): 12 µM (inactive)
- IC50 [2]: 35.9 µM (inactive)

SMILES: Cc1ccc(Cc2cnc(N3C(=N)SC(C)C3=O)s2)cc1 (stereo not drawn)
- EC50 [8]: 0.574 µM (active)
- IC50 (Beta-galactosidase): > 66.6 µM (inactive)
- IC50 [14]: 1.89 µM (active)
- EC50 (Streptococcus): 3.44 µM (active)

SMILES: C=CCCC(=O)Nc1nc(C)c(-c2csc(Nc3cccc(OC)c3)n2)s1
- IC50 [16]: 17.7 µM (active)
- IC50 [17]: > 66.6 µM (inactive)

SMILES: CC(=O)c1cccc(NC(=O)c2cccc(N3C(=O)c4ccccc4C3=O)c2)c1
- IC50 [16]: 8.03 µM (active)
- IC50 [17]: > 66.6 µM (inactive)

SMILES: S=C(NCCc1ccccc1)Nc1cccc2cnccc12
- AC50 [18]: 0.922 µM (active)
- IC50 [19]: 7.44 µM (active)
- AC50 [20]: 1.05 µM (active)
- IC50 (Galanin receptor type 3): 1.66 µM (active)
- EC50 (cells [21]): > 29.9 µM (inactive)
- AC50 [22]: 2.49 µM (active)

SMILES: O=C(CCS(=O)(=O)c1ccc(Br)cc1)N1CCCCCC1
- IC50 [16]: 13 µM (active)
- IC50 [17]: > 66.6 µM (inactive)
